Reference: patent US6054435A, “6-O-substituted macrolides having antibacterial activity” (priority 1999, dated 2000)
≈ marks a conversion by molar mass, not a printed value.

Assays:
Experiment in all cases: in vitro antibacterial activity (MIC), agar dilution
Format in all cases: cell-based
[1] = test system: Streptococcus Pneumonia GYR 1171; conditions: organism code YY; BHI agar, 35-37° C., 20 to 24 hours; unit assumed
Summary of the method: (§1)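 BHI agar incorporation method; twelve compound concentrations. Streptococcus and other slow growers inoculated at 1:10, other strains at 1:100. Visual MIC read-out versus growth control.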

[2] = test system: Staphylococcus epidermidis 3519; conditions: organism code HH; BHI agar, 35-37° C., 20 to 24 hours; unit assumed
Summary of the method: as §1

[3] = test system: Streptococcus pyogenes EES61; conditions: organism code LL; BHI agar, 35-37° C., 20 to 24 hours; unit assumed
Summary of the method: as §1

[4] = test system: Mycobacterium smegmatis ATCC 114; conditions: organism code UU; BHI agar, 35-37° C., 20 to 24 hours; unit assumed
Summary of the method: as §1

[5] = test system: Staphylococcus aureus 1775; conditions: organism code GG; BHI agar, 35-37° C., 20 to 24 hours; unit assumed
Summary of the method: as §1

[6] = test system: Micrococcus luteus ATCC 9341; conditions: organism code OO; BHI agar, 35-37° C., 20 to 24 hours; unit assumed
Summary of the method: (§2)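 Agar dilution on BHI agar with twelve successive compound dilutions; plates inoculated by Steers replicator with 1:100 culture dilutions (1:10 for slow growers such as Streptococcus). MIC is the lowest concentration giving no growth, slight haze or sparse colonies versus a drug-free control.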

[7] = test system: Streptococcus Pneumonia 5649; conditions: organism code ZZA; BHI agar, 35-37° C., 20 to 24 hours; unit assumed
Summary of the method: as §1

[8] = test system: Staphylococcus aureus ATCC 6538P; conditions: organism code AA; BHI agar, 35-37° C., 20 to 24 hours; unit assumed
Summary of the method: as §1

[9] = test system: Streptococcus bovis A-5169; conditions: organism code JJ; BHI agar, 35-37° C., 20 to 24 hours; unit assumed
Summary of the method: as §1

[10] = test system: Streptococcus Pneumonia ATCC6303; conditions: organism code XX; BHI agar, 35-37° C., 20 to 24 hours; unit assumed
Summary of the method: as §1

[11] = test system: Streptococcus pyogenes 930; conditions: organism code MM; BHI agar, 35-37° C., 20 to 24 hours; unit assumed
Summary of the method: as §1

[12] = test system: Enterococcus faecium ATCC 8043; conditions: organism code II; BHI agar, 35-37° C., 20 to 24 hours; unit assumed
Summary of the method: as §1

[13] = test system: Escherichia coli SS; conditions: organism code RR; BHI agar, 35-37° C., 20 to 24 hours; unit assumed
Summary of the method: as §1

[14] = test system: Streptococcus Pneumonia 5979; conditions: organism code ZZ; BHI agar, 35-37° C., 20 to 24 hours; unit assumed
Summary of the method: as §1

[15] = test system: Candida albicans CCH 442; conditions: organism code TT; BHI agar, 35-37° C., 20 to 24 hours; unit assumed
Summary of the method: as §1

[16] = test system: Staphylococcus aureus A-5278; conditions: organism code CC; BHI agar, 35-37° C., 20 to 24 hours; unit assumed
Summary of the method: as §1

[17] = test system: Nocardia Asteroides ATCC9970; conditions: organism code VV; BHI agar, 35-37° C., 20 to 24 hours; unit assumed
Summary of the method: as §1

[18] = test system: Streptococcus agalactiae CMX 508; conditions: organism code KK; BHI agar, 35-37° C., 20 to 24 hours; unit assumed
Summary of the method: as §1

[19] = test system: Escherichia coli DC-2; conditions: organism code SS; BHI agar, 35-37° C., 20 to 24 hours; unit assumed
Summary of the method: as §1

[20] = test system: Staphylococcus aureus CMX 553; conditions: organism code FF; BHI agar, 35-37° C., 20 to 24 hours; unit assumed
Summary of the method: as §1

[21] = test system: Escherichia coli JUHL; conditions: organism code QQ; BHI agar, 35-37° C., 20 to 24 hours; unit assumed
Summary of the method: as §1

[22] = test system: Staphylococcus aureus CMX 642A; conditions: organism code DD; BHI agar, 35-37° C., 20 to 24 hours; unit assumed
Summary of the method: as §1

[23] = test system: Staphylococcus aureus A5177; conditions: organism code BB; BHI agar, 35-37° C., 20 to 24 hours; unit assumed
Summary of the method: as §1

[24] = test system: Haemophilis Influenzae DILL AMP R; conditions: organism code WW; BHI agar, 35-37° C., 20 to 24 hours; unit assumed
Summary of the method: as §1

[25] = test system: Micrococcus luteus ATCC 4698; conditions: organism code PP; BHI agar, 35-37° C., 20 to 24 hours; unit assumed
Summary of the method: as §2

[26] = test system: Staphylococcus aureus NCTC10649M; conditions: organism code EE; BHI agar, 35-37° C., 20 to 24 hours; unit assumed
Summary of the method: as §1

[27] = test system: Streptococcus pyogenes PIU 2548; conditions: organism code NN; BHI agar, 35-37° C., 20 to 24 hours; unit assumed
Summary of the method: as §1

CC[C@H]1OC(=O)[C@H](C)C(=O)[C@H](C)[C@@H](O[C@@H]2O[C@H](C)C[C@H](N(C)C)[C@H]2O)[C@](C)(OCC#Cc2ccc(-c3ncccn3)s2)C[C@@H](C)C(=O)[C@H](C)[C@H]2NC(=O)O[C@@]21C [Example 5]
MIC [1]: 0.03 µg/mL (≈ 0.0376 µM) | MIC [2]: 0.05 µg/mL (≈ 0.0627 µM) | MIC [3]: ≤ 0.005 µg/mL | MIC [4]: 0.78 µg/mL (≈ 0.979 µM) | MIC [5]: > 100 µg/mL | MIC [6]: 0.01 µg/mL (≈ 0.0125 µM) | MIC [7]: 0.25 µg/mL (≈ 0.314 µM) | MIC [8]: 0.02 µg/mL (≈ 0.0251 µM) | MIC [9]: ≤ 0.005 µg/mL | MIC [10]: 0.03 µg/mL (≈ 0.0376 µM) | MIC [11]: 25 µg/mL (≈ 31.4 µM) | MIC [12]: 0.02 µg/mL (≈ 0.0251 µM) | MIC [13]: 0.1 µg/mL (≈ 0.125 µM) | MIC [14]: 0.5 µg/mL (≈ 0.627 µM) | MIC [15]: > 100 µg/mL | MIC [16]: > 100 µg/mL | MIC [17]: 0.01 µg/mL (≈ 0.0125 µM) | MIC [18]: 0.01 µg/mL (≈ 0.0125 µM) | MIC [19]: 25 µg/mL (≈ 31.4 µM) | MIC [20]: 0.02 µg/mL (≈ 0.0251 µM) | MIC [21]: 25 µg/mL (≈ 31.4 µM) | MIC [22]: 0.05 µg/mL (≈ 0.0627 µM) | MIC [23]: 0.05 µg/mL (≈ 0.0627 µM) | MIC [24]: 2 µg/mL (≈ 2.51 µM) | MIC [25]: 0.1 µg/mL (≈ 0.125 µM) | MIC [26]: 0.05 µg/mL (≈ 0.0627 µM) | MIC [27]: 0.1 µg/mL (≈ 0.125 µM)

CC[C@H]1OC(=O)[C@H](C)C(=O)[C@H](C)[C@@H](O[C@@H]2O[C@H](C)C[C@H](N(C)C)[C@H]2O)[C@](C)(OCC#Cc2ccc(-c3cccc(C)c3)s2)C[C@@H](C)C(=O)[C@H](C)[C@H]2NC(=O)O[C@@]21C [Example 18]
MIC [1]: 0.03 µg/mL (≈ 0.0371 µM) | MIC [2]: 0.2 µg/mL (≈ 0.247 µM) | MIC [3]: 0.02 µg/mL (≈ 0.0247 µM) | MIC [4]: 0.1 µg/mL (≈ 0.124 µM) | MIC [5]: 12.5 µg/mL (≈ 15.5 µM) | MIC [6]: 0.02 µg/mL (≈ 0.0247 µM) | MIC [7]: 0.5 µg/mL (≈ 0.618 µM) | MIC [8]: 0.1 µg/mL (≈ 0.124 µM) | MIC [9]: 0.01 µg/mL (≈ 0.0124 µM) | MIC [10]: 0.06 µg/mL (≈ 0.0742 µM) | MIC [11]: 1.56 µg/mL (≈ 1.93 µM) | MIC [12]: 0.1 µg/mL (≈ 0.124 µM) | MIC [13]: 0.78 µg/mL (≈ 0.964 µM) | MIC [14]: 2 µg/mL (≈ 2.47 µM) | MIC [15]: > 100 µg/mL | MIC [16]: 25 µg/mL (≈ 30.9 µM) | MIC [17]: 0.1 µg/mL (≈ 0.124 µM) | MIC [18]: 0.02 µg/mL (≈ 0.0247 µM) | MIC [19]: > 100 µg/mL | MIC [20]: 0.1 µg/mL (≈ 0.124 µM) | MIC [21]: > 100 µg/mL | MIC [22]: 0.1 µg/mL (≈ 0.124 µM) | MIC [23]: 0.1 µg/mL (≈ 0.124 µM) | MIC [24]: 2 µg/mL (≈ 2.47 µM) | MIC [25]: 0.2 µg/mL (≈ 0.247 µM) | MIC [26]: 0.2 µg/mL (≈ 0.247 µM) | MIC [27]: 0.2 µg/mL (≈ 0.247 µM)

CC[C@H]1OC(=O)[C@H](C)C(=O)[C@H](C)[C@@H](O[C@@H]2O[C@H](C)C[C@H](N(C)C)[C@H]2O)[C@](C)(OCC#Cc2ccc(-c3cccc([N+](=O)[O-])c3)s2)C[C@@H](C)C(=O)[C@H](C)[C@H]2NC(=O)O[C@@]21C [Example 21]
MIC [1]: 0.03 µg/mL (≈ 0.0357 µM) | MIC [2]: 0.2 µg/mL (≈ 0.238 µM) | MIC [3]: 0.02 µg/mL (≈ 0.0238 µM) | MIC [4]: 0.2 µg/mL (≈ 0.238 µM) | MIC [5]: 100 µg/mL (≈ 119 µM) | MIC [6]: 0.02 µg/mL (≈ 0.0238 µM) | MIC [7]: 0.5 µg/mL (≈ 0.595 µM) | MIC [8]: 0.1 µg/mL (≈ 0.119 µM) | MIC [9]: 0.02 µg/mL (≈ 0.0238 µM) | MIC [10]: 0.03 µg/mL (≈ 0.0357 µM) | MIC [11]: 0.78 µg/mL (≈ 0.929 µM) | MIC [12]: 0.05 µg/mL (≈ 0.0595 µM) | MIC [13]: 0.2 µg/mL (≈ 0.238 µM) | MIC [14]: 2 µg/mL (≈ 2.38 µM) | MIC [15]: > 100 µg/mL | MIC [16]: > 100 µg/mL | MIC [17]: 0.2 µg/mL (≈ 0.238 µM) | MIC [18]: 0.02 µg/mL (≈ 0.0238 µM) | MIC [19]: > 100 µg/mL | MIC [20]: 0.05 µg/mL (≈ 0.0595 µM) | MIC [21]: > 100 µg/mL | MIC [22]: 0.05 µg/mL (≈ 0.0595 µM) | MIC [23]: 0.05 µg/mL (≈ 0.0595 µM) | MIC [24]: 8 µg/mL (≈ 9.52 µM) | MIC [25]: 0.05 µg/mL (≈ 0.0595 µM) | MIC [26]: 0.1 µg/mL (≈ 0.119 µM) | MIC [27]: 0.2 µg/mL (≈ 0.238 µM)
